The values that follow come from patent US7524864B2, “Methods of treating sleep disorders” (Hypnion, Inc., priority 2004, dated 2009).

Read-outs that look alike come from different tables or passages of the source.

The target in test [1] is T1, human recombinant M1 expressed in CHO cells (Homo sapiens, UniProt P11229).
T1 construct: purchased PerkinElmer, Inc., Wellesley, Mass; host or cells: CHO cells
T1 sequence (P11229 1-460): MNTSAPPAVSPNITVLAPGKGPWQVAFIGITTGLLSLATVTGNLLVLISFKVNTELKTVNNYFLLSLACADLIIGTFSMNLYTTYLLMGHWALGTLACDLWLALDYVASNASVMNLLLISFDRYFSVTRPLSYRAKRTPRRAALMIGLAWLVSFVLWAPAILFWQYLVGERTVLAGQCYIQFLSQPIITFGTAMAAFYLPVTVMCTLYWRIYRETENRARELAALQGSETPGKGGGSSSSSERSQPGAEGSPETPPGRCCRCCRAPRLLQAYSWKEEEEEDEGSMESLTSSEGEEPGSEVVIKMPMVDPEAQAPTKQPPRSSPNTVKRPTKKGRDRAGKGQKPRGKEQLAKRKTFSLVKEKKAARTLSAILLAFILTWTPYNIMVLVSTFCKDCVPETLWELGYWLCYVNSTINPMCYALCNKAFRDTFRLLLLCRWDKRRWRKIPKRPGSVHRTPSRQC
Conditions: reference compounds; read-out: Ki of reference compounds in M1 binding assay; cited from earlier work.

For test [2], the target named is T2, H1 receptor (Bos taurus, UniProt P30546).
T2 construct: the receptors are obtained from bovine cerebellar membrane tissue; from tissue; host or cells: bovine cerebellar membranes
T2 sequence (P30546 whole entry): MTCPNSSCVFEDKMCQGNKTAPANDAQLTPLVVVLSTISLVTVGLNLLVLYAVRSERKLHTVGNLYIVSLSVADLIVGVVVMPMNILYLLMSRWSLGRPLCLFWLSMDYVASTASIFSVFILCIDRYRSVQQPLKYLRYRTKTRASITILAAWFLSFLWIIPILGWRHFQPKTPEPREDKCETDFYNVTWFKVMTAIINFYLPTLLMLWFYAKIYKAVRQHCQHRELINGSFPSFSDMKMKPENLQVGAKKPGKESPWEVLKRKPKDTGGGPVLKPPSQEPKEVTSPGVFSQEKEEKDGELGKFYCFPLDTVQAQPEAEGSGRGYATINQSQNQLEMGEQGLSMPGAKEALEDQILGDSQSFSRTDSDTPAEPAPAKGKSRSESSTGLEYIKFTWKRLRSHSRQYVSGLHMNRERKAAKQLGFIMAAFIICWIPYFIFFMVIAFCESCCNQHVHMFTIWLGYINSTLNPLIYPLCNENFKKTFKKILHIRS
In words: H1 histamine receptor competitive binding assay ([3H]pyrilamine displacement). Details: species or system bovine.

Test [3] concerns the target T3, human recombinant M3 expressed in CHO cells (Homo sapiens, UniProt P20309).
T3 construct: purchased PerkinElmer, Inc., Wellesley, Mass; host or cells: CHO cells
In words: M3 muscarinic receptor binding assay ([3H]-scopolamine, N-methyl chloride displacement). Conditions: Table 5; read-out: M3 inhibition constant Ki.

Test [4] concerns the target T4, human recombinant M2 expressed in CHO cells (Homo sapiens, UniProt P08172).
T4 construct: purchased PerkinElmer, Inc., Wellesley, Mass; host or cells: CHO cells
T4 sequence (P08172 1-466): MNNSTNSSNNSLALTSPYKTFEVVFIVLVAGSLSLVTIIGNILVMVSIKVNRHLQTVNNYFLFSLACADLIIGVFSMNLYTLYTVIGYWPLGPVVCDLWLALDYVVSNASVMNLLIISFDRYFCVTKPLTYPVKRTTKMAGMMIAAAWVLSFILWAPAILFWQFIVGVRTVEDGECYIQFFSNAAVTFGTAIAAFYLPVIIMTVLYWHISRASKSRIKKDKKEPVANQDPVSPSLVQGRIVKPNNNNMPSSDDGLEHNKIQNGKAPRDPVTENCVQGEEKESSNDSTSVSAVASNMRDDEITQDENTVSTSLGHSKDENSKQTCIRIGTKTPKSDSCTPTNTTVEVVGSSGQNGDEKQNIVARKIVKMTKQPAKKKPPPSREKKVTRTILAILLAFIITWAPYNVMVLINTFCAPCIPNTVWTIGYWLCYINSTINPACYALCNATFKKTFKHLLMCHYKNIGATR
Nature of the test: M2 muscarinic receptor binding assay ([3H]-scopolamine, N-methyl chloride displacement). To be noted: Table 5; read-out: M2 inhibition constant Ki.

For test [5], the target named is T1, human recombinant M1 expressed in CHO cells. In words: M1 muscarinic receptor binding assay ([3H]-scopolamine, N-methyl chloride displacement). Conditions: Table 5; read-out: M1 inhibition constant Ki.
Test [6] relates to sleep (NREM, LUSB) in male Wistar rats. In words: Sleep-wakefulness monitoring (SCORE-2000, EEG/EMG) in male Wistar rats. The format is in vivo, rat. Conditions: oral, CT-18. On the procedure: Sleep-wakefulness, locomotor activity and body temperature are monitored in male Wistar rats treated with a test compound (i.e., doxepin analog) initially at a concentration of 10 mg/kg. Higher and lower doses are assayed for select compounds (e.g., as high as 45 mg/kg, and as low as necessary to establish a no-effect dose). Treatments are administered at CT-18, the peak of the activity dominated period (6 hours after lights-off), and produced soporific (sleep-inducing) effects characterized by increased non-REM sleep time, increased sleep continuity, but without evidence of REM sleep inhibition or rebound insomnia.
Sleep-wakefulness, locomotor activity and body temperature are monitored in vivo with the disclosed sleep-inducing agents. Adult, male Wistar rats (250 g at time of surgery, Charles River Laboratories, Wilmington Mass.) were anesthetized (2% isoflourane in medical grade oxygen) and surgically prepared with a cranial implant to permit chronic electro-encephalogram (EEG) and electromyogram (EMG) recording. Body temperature and locomotor activity were monitored via a miniature transmitter (Mini-Mitter, Bend, Oreg.) surgically placed in the abdomen. The cranial implant consisted of stainless steel screws (two frontal [+3.2 AP from bregma, ±2.0 ML] and two occipital [−6.9 AP, ±5.5 ML]) for EEG recording. Two Teflon®-coated stainless steel wires were positioned under the nuchal trapezoid muscles for EMG recording. All leads were soldered to a miniature connector prior to surgery, and gas sterilized in ethylene oxide. The implant assembly was affixed to the skull with dental acrylic. A minimum of three weeks was allowed for surgical recovery.
Each rat is permanently housed in its own individual recording cage located within separate, ventilated compartments of custom-designed stainless steel cabinets. Each cage is enhanced with a filter-top riser and low-torque swivel-commutator. Food and water are available ad libitum. A 24-hr light-dark cycle (12 hours light, 12 hours dark) is maintained throughout the study. Animals are undisturbed for at least 48 hours before and after treatments.
Sleep and wakefulness is determined using “SCORE-2000™”(Hypnion, Worcester, Mass.)—an internet-based sleep-wake and physiological monitoring system. The system monitored amplified EEG (bandpass 1-30 Hz), integrated EMG (bandpass 10-100 Hz), body temperature and non-specific locomotor activity (LMA) via telemetry, and drinking activity, continuously and simultaneously. Arousal states are classified on-line as non-REM (NREM) sleep, REM sleep, wake, or theta-dominated wake every 10 seconds. Total drinking and locomotor activity counts, and body temperature were quantitiated and recorded each minute, using EEG feature extraction and pattern-matching algorithms. […] The classification algorithm used individually-taught EEG-arousal-state templates, plus EMG criteria to differentiate REM sleep from theta-dominated wakefulness, plus behavior-dependent contextual rules (e.g., if the animal was drinking, it is awake). Drinking and locomotor activity intensity (LMA) are recorded as discrete events every 10 seconds, while body temperature was recorded each minute. Locomotor activity was detected by a telemetry receiver (Mini-Mitter) beneath the cage. Telemetry measures (LMA and body temperature) are not part of the scoring algorithm; thus, sleep-scoring and telemetry data were independent measures.
Compounds are administered at CT-18, the peak of the activity-dominated period, in order to ensure prior wakefulness is sufficient to interact positively with hypnotic-drug effects, and sufficient time is allowed to view the time course of the treatment effect before lights-on (6 hours post-treatment). Compounds are suspended in sterile 0.25% or 0.5% methylcellulose (1-2 ml/kg). Treatments are administered orally as a bolus.
A parallel group study design is employed. […]

The term Ki denotes a dissociation constant, usually derived from enzyme kinetics or from competition with a known ligand.

T3 sequence (P20309 whole entry): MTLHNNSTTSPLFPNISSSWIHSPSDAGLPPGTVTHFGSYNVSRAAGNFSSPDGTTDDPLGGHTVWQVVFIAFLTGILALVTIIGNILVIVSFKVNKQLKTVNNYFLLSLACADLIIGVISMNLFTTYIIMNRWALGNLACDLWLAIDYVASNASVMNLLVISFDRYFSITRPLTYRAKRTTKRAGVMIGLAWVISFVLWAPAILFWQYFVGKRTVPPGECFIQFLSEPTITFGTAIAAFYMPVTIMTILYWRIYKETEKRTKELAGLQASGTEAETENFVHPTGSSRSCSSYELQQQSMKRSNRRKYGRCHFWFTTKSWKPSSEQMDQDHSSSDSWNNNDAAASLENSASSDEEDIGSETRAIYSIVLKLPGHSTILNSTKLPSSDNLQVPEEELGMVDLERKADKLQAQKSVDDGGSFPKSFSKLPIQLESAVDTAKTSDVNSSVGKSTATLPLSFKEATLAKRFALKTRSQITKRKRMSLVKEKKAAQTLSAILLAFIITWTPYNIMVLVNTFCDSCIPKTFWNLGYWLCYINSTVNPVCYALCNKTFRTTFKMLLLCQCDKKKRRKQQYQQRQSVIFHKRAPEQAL

`C[N+]1(C)CCC(OC(=O)C(c2ccccc2)c2ccccc2)CC1` [4-DAMP methiodide]: the Ki in test [1] is 0.27 nM.

As for `CC(C)(CN1CCC(=C2c3ccc(F)cc3CSc3ccccc32)CC1)C(=O)O.Cl` [Compound 8], the “specificity for H1 over the muscarinic receptors” value in test [2] (H1 versus M1, M2, M3 Ki) is “specific for H1 over the muscarinic receptors”. Also, the inhibition constant Ki in test [2] (bovine H1, Table 5, read-out: H1 (bovine) inhibition constant Ki) is 50.6 nM; in test [3], greater than 10000 nM; in test [4], greater than 10000 nM; in test [5] it was greater than 10000 nM. Further, the “LUSB (longest uninterrupted sleep bout)” value is 4.7 ± 3.2 min in test [6] (3 mg/kg); 6.3 ± 1.7 min in test [6] (10 mg/kg); 10.9 ± 2.3 min in test [6] (30 mg/kg); 9.3 ± 2.2 min in test [6] (56 mg/kg); 13.2 ± 2.8 min in test [6] (100 mg/kg). Besides, the NREM in test [6] (10 mg/kg) was found to be 20 ± 5 min; in test [6] (30 mg/kg), 41 ± 9 min; in test [6] (56 mg/kg), 57 ± 7 min; in test [6] (100 mg/kg), 52 ± 8 min.
